A word on the melting point: it is the temperature of the solid-liquid transition.

In turn, `O=C(Nc1ccc(-n2nc(C(F)(F)F)cc2C(F)(F)F)cc1)C1CC1` displayed a melting point of 204 to 205 °C.

The compound `Cc1oc(-c2ccccc2)nc1COc1ccc(COc2ccccc2CC(=O)O)cc1` gave a melting point of 153 to 154 °C.

`O=C(NNS(=O)(=O)c1ccccc1)c1ccc2ncccc2c1` had a melting point of 211 to 214 °C.

`CCNc1ccc(S(=O)c2ccccc2)cc1N` (stereo not drawn) returned a melting point of 140 to 142 °C.

In turn, `CC(=O)Nc1cc2c(cc1Oc1ccc(F)cc1F)CCC2c1ccccc1` (stereo not drawn) returned a melting point of 117 °C.

The compound `CCCc1cc(NC(=S)N2CCN(c3cc(OC)cc(OC)c3)CC2)c(OC)nc1C` displayed a melting point of 143 to 144 °C.

Compound `CCOC(=O)c1cnoc1-c1ccc2c(c1)OCO2` registered a melting point of 73 to 74 °C.

`CC(C)(C)c1cc(I)c2oncc2c1` registered a melting point of 106 to 109 °C.

`OC(c1ccc(Cl)cc1)(c1ccc(Cl)cc1)C1CCNCC1` showed a melting point of 184 to 188 °C.

With `Cc1nc(C)c(N2CCCn3c2nc2c(Cl)ccc(C(OC(F)F)C(F)(F)F)c23)c(C)n1` (stereo not drawn), the melting point lay in the range of 168 to 170 °C.

The compound `O=c1[nH]c(=O)c2ccccc2o1` came in with a melting point of 132 to 133 °C.

The compound `O=C1OC(c2ccccc2)(c2ccccc2)C2CN(c3nc4ccccc4o3)CCN12` (stereo not drawn) registered a melting point of 260 °C.

`O=[N+]([O-])c1ccc(CS(=O)(=O)CCO)c(CS(=O)(=O)CCO)c1` showed a melting point of 126 to 128 °C.

In turn, `CCCOc1ccc([N+](=O)[O-])c(C)c1Cl` yielded a melting point of 42 to 43 °C.

For the compound `COC(=O)c1cc2ccc(OC)cc2cc1/N=C/N(C)C`, the melting point was 122 to 124 °C.

`CC1(C)CC(=O)Nc2cc3nc(-c4ccc(C(N)=O)cc4)[nH]c3cc21`: the melting point was 317 to 319 °C.

The compound `CC(C)(C)c1ccc(-c2ccc(C(C)(C)C)c(O)c2)cc1` showed a melting point of 86 to 87 °C.

The compound `COC(=O)c1ccccc1S(=O)(=O)NC(=O)Nc1nc(C)cc(OC)n1` came in with a melting point of 173 to 179 °C.

Compound `CC(CO)N1CCN(c2cccc3c2OCCO3)CC1` (stereo not drawn) registered a melting point of 91 to 92 °C.

In turn, `COC(=O)C(=O)c1ccc(OCCOc2ccc([N+](=O)[O-])cc2)cc1` had a melting point of 122 to 123 °C.

With `CS(=O)c1c(C#N)nn(-c2c(Cl)cc(C(F)(F)F)cc2Cl)c1NCc1cnccn1` (stereo not drawn), the melting point is 198 °C.

For `Cc1ccc(-c2cc(C)ccc2C=CC#Cc2ccc(C(=O)O)cc2)cc1`, the melting point lay within 71 to 73 °C.

In turn, `OCC1OC(n2cnc3c(NCc4ccccc4)nc(Cl)nc32)CC1O` (stereo not drawn) yielded a melting point of 147 °C.

Take `Cc1oc(C(C)(C)C)nc1CCOc1ccc(CC(OC(C)C)C(=O)O)c2sccc12` (stereo not drawn): the melting point lay in the range of 159 to 160 °C.

`CCOC(=O)C1=C(C(=O)OCC)C(c2cccc([N+](=O)[O-])c2)C(C(=O)OCC)=C(C(=O)OCC)N1` yielded a melting point of 121 to 124 °C.

In turn, `CCOC(=O)Cc1cccc(Cc2nc3cc(F)cc(F)c3s2)c1` registered a melting point of 66 to 67 °C.

With `CCCCCCN(Cc1ccc(N(C)C)cc1)c1c(N[C@@H](Cc2ccccc2)C(=O)O)c(=O)c1=O`, the melting point was 77 to 80 °C.

For the compound `CC12CC(=O)NN=C1c1ccc(Br)cc1C2` (stereo not drawn), the melting point was determined as 242 °C.

Consider `N#Cc1c(N2CCCCC2)cc(-c2ccc3ccccc3c2)c2c1-c1ccccc1C2`, for which the melting point lay within 136 to 138 °C.

Regarding `O=C1NC(=O)C(c2cn3c4c(cccc24)C(O)CC3)=C1c1c[nH]c2ccccc12` (stereo not drawn), the melting point lay in the range of 165 to 168 °C.

For the compound `Oc1ccc(OCc2ccccc2)cc1F`, the melting point turned out to be 67 °C.

Compound `CC1(C)C=C(c2ccccc2)c2ccccc2N1` displayed a melting point of 79.5 to 81 °C.

Turning to `O=C(O)C(=O)c1cc(F)ccc1NC(=O)c1ccc(-c2ccccc2)cc1`, the melting point fell in the range of 204 to 206 °C.

Compound `CCOC(=O)c1c(C)nc2c(c1N)c1ccccc1n2Cc1ccccc1` yielded a melting point of 139 to 140 °C.

With `O=C(c1ccccc1NCc1ccncc1)[NH+]([O-])c1cc2ccccc2cn1` (stereo not drawn), the melting point was 212 °C.

On to `Cc1nc(-n2ccc(OCCC3CC3)cc2=O)sc1C(=O)NCc1ccc(F)cc1`, for which the melting point fell in the range of 172 to 174 °C.

`COc1cc(CO)c(OC)c2ccccc12` had a melting point of 63 to 66 °C.

For the compound `COC(=O)CC[C@@H](NC(=O)[C@H](COCc1ccccc1)NC(=O)OC(C)(C)C)C(N)=O`, the melting point lay in the range of 103 to 104 °C.

For `CCCCCC(C)C(C)c1cc(O)c2c(c1)oc(=O)c1ccncc12` (stereo not drawn), the melting point was in the range of 122 to 123 °C.

On to `COc1ccc(C)cc1NC(=O)Nc1ccc(N2CCN(C(=O)Nc3cc(OCCO)ccc3C)CC2)cc1`, for which the melting point lay in the range of 121 to 124 °C.

As to `CCc1cc(O)n2nc(CC)c(C)c2n1`, the melting point was determined as 287 °C.

`COC(=O)C1Cc2c([nH]c3ccccc23)C(c2c(Cl)cccc2Cl)N1` (stereo not drawn) gave a melting point of 102 to 105 °C.

For `CC(NCC(O)c1cc(Cl)c(N)c(Cl)c1)C1CCCCC1` (stereo not drawn), the melting point was in the range of 106 to 108 °C.

In the case of `CC(C)Nc1cccnc1N1CCN(C(=O)c2ccc(C(=O)N(C)CC3OCCO3)cc2)CC1`, the melting point was in the range of 102 to 104 °C.

`ON=C1c2sccc2-n2cccc21` registered a melting point of 172 °C.

Turning to `CCN1C(c2nnc(-c3ccccc3)o2)=C(OC(=O)C2CCCC2)c2ccccc2S1(=O)=O`, the melting point was 194 to 196 °C.

On to `COc1cc(Nc2c(C#N)cnc3c2C=C2N=C(NCCN4CCOCC4)N=C2C3)cc(OC)c1OC`, for which the melting point was 175 to 178 °C.

Compound `Nc1c(Cl)nc2ccccc2c1NCc1cc(-c2ccc(F)cc2)no1` showed a melting point of 127 to 128 °C.

As to `O=C(NC(C(=O)O)c1ccc2c(c1)CCO2)OCc1ccccc1` (stereo not drawn), the melting point fell in the range of 121 to 123 °C.

`Cn1cc(C(=O)Nc2cnccc2-c2ccc(Cl)cc2)c(C(F)(F)F)c1` displayed a melting point of 178 to 180 °C.

In turn, `CC(=O)OCC(C(OC(C)=O)c1ccc(Br)cc1)[N+](=O)[O-]` (stereo not drawn) registered a melting point of 81 to 82 °C.

In turn, `CCCCCC1=NN(C(=O)NC2C3CC4CC(C3)CC2C4)CC1c1ccccc1` (stereo not drawn) returned a melting point of 71 °C.

In turn, `COc1ccc(NCC(=O)N2CCC(Cc3ccccc3)CC2)cc1` registered a melting point of 117 to 119 °C.

`CN(C(=O)COc1nnc(Cl)s1)c1ccccc1` gave a melting point of 101 °C.

`N#CC(C(=O)Nc1cccc(C(F)(F)F)c1)C(=O)c1ccc[nH]1` (stereo not drawn) yielded a melting point of 210 to 212 °C.

On to `COc1cccc(Oc2cccnc2C#N)c1`, for which the melting point fell in the range of 112 to 114 °C.

On to `CC(C)(C)OC(=O)[C@H]1CC[C@H](c2ccccc2)N1C(=O)CNC(=O)Nc1cccc(C(=O)O)c1` (racemic), for which the melting point amounted to 236 °C.

The compound `O=C(O)Cn1c(=O)c(=O)[nH]c2ccc3ccc(-n4ccc(CNC(=O)Nc5ccccc5)c4)cc3c21` had a melting point of over 230 °C.

Compound `COc1cc(Cc2cnc(NC(=O)C(C)(C)C)nc2NC(=O)C(C)(C)C)c(C=O)c(OC)c1OC` had a melting point of 162 to 163 °C.

With `COc1ccc(Cn2c(=O)[nH]c3ccc(C(=O)NCc4ccc5c(c4)OCO5)cc3c2=O)cc1`, the melting point was determined as 252 °C.

With `c1ccc2c(c1)Cc1ccccc1N1CCCN=C21`, the melting point is 139 to 141 °C.

As to `Cc1nn(-c2ccc(C#N)c(Cl)c2)c(C)c1Cc1ccc(C(=O)NC(C)(C)C)cc1`, the melting point lay in the range of 135 to 136 °C.

`Cc1ccc(-c2nc3sc4ccccc4n3c2CC(N)=O)s1` gave a melting point of 243 to 245 °C.

`Nc1ccc(C(=O)c2ccccc2)cc1CC(=O)O` yielded a melting point of 143 to 145 °C.

In turn, `O=C(c1ccc(OC(F)(F)F)cc1)c1ccc(C(F)(F)F)cc1` yielded a melting point of 61.5 to 62 °C.

The compound `O=Cc1sc(Cl)c(Cl)c1Cl` had a melting point of 81 to 82 °C.

As to `CCNC(=S)NC1=Nc2ccc(OC(F)(F)F)cc2CS1`, the melting point fell in the range of 169 to 172 °C.

In turn, `COc1cn(-c2ccc(-n3cc(Cl)cn3)cc2F)nc(-c2ccnn2-c2ccccc2)c1=O` came in with a melting point of 190 to 192 °C.

Compound `CCN(CC)C(=O)c1ccoc1-c1ccc2ccccc2c1` came in with a melting point of 92 to 93 °C.

Compound `CCCc1c(N)c(N)cc2c(=O)cc(C(=O)OC)oc12` came in with a melting point of 221 to 222 °C.

On to `CNC(=O)n1sc(SCc2ccc(Cl)cc2)nc1=O`, for which the melting point turned out to be 140 °C.

In the case of `O=c1ccn(CCO)c(C(O)c2ccccc2F)c1O` (stereo not drawn), the melting point was 177 to 178 °C.

On to `COC(OC)C(CC(=O)O)C(C)(C)S(=O)(=O)c1ccc(C)cc1` (stereo not drawn), for which the melting point worked out at 144 °C.

For `COc1cc(C(C)=O)ccc1OCCCN1CCN(c2nn(C(=O)c3ccccc3)c3cccc(F)c23)CC1`, the melting point lay within 138 to 140 °C.

Regarding `Cc1ccc(C(Cl)=CC(=O)NC(Cc2ccccc2)C(=O)O)cc1` (stereo not drawn), the melting point fell in the range of 168 to 170 °C.

In the case of `CCN(CC)C(=O)c1ccc2ccccc2c1/C=C/c1ccccc1`, the melting point fell in the range of 86 to 89 °C.

As to `CCCOc1ccc2c(c1)C(c1ccccc1OCC(=O)O)C(C(=O)O)C2c1ccc2c(c1)OCO2` (stereo not drawn), the melting point fell in the range of 169 to 170 °C.

`CCOC(=O)C(=O)Nc1ccc2c(c1)OCC(=O)N2` registered a melting point of 239 to 240 °C.

As to `COc1cc(C2=NC(C)(C)CO2)cc(OC)c1Br`, the melting point lay in the range of 172 to 174 °C.

Turning to `O=C(CCl)Nc1cccc(NC(=O)Nc2ccc(N(CCCl)CCCl)cc2)c1`, the melting point is 232 to 233 °C.

Regarding `CCOc1cc2ncc(C#N)c(Nc3ccc4c(c3)OCCO4)c2cc1OCC`, the melting point lay in the range of 225 to 227 °C.

Consider `O=S(Cc1ccccn1)c1cnc2ccccc2n1` (stereo not drawn), for which the melting point was 117 to 122 °C.

`CN1CCN(C(=O)OC2C3=C(SCCS3)C(=O)N2c2ccccn2)CC1` (stereo not drawn) displayed a melting point of 145 °C.

`CC1(C)Oc2ccc(CC3SC(=O)NC3=O)cc2CC1c1ccccc1` (stereo not drawn) gave a melting point of 53 to 68 °C.

In turn, `CCOC(=O)Nc1nc(-c2ccccc2)c(-c2nc3ccccc3c(=O)n2-c2ccc(OC)cc2)s1` gave a melting point of 256 to 257 °C.

In turn, `N#Cc1nn(-c2c(Cl)cc(C(F)(F)F)cc2Cl)c(NCc2ccccn2)c1SC(F)F` registered a melting point of 117 to 120 °C.

As for `Cn1c(NCCOS(C)(=O)=O)cc(=O)n(C)c1=O`, the melting point was 169 to 170 °C.

The compound `CCOC(=O)c1c(C)cc2nc(C)n(-c3ccccc3Cl)c(=O)c2c1C` came in with a melting point of 131 to 132 °C.

For the origin of these results see a melting point compilation (Tetko et al.; mined from patent text by program, amines drawn as free bases though some values may be those of a salt).
